Assay results published in ChEMBL document CHEMBL5346941, “Design, synthesis and evaluation of novel monoamine oxidase B (MAO-B) inhibitors with improved pharmacokinetic properties for Parkinson's disease” (Eur J Med Chem, 2023).

Tests used:
[1] = molecular target: T1, Amine oxidase [flavin-containing] B (Homo sapiens, UniProt P27338); assay: Inhibition of recombinant human MAO-B expressed in Sf9 cells using p-tyramine as substrate preincubated for 15 mins followed by substrate addition and measured after 60 mins by luciferin based luminescence analysis
T1 sequence (P27338 whole entry): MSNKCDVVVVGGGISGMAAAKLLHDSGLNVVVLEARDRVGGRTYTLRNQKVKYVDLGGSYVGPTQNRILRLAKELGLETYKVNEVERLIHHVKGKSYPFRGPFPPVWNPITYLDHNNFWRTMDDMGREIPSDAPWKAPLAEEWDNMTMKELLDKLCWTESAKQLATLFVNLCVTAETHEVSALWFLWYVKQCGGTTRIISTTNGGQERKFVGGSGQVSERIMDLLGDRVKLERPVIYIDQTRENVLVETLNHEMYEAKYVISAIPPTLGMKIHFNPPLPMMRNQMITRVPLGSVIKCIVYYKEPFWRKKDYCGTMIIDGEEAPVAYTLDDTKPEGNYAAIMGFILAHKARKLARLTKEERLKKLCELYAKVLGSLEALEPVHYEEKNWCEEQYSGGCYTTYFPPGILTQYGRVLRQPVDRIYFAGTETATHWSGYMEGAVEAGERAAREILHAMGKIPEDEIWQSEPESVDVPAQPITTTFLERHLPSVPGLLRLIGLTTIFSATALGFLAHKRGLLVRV

[2] = molecular target: T2, Amine oxidase [flavin-containing] A (Homo sapiens, UniProt P21397); assay: Inhibition of recombinant human MAO-A expressed in Sf9 cells using […] as substrate preincubated for 15 mins followed by substrate addition and measured after 60 mins by luciferin based luminescence analysis
T2 sequence (P21397 whole entry): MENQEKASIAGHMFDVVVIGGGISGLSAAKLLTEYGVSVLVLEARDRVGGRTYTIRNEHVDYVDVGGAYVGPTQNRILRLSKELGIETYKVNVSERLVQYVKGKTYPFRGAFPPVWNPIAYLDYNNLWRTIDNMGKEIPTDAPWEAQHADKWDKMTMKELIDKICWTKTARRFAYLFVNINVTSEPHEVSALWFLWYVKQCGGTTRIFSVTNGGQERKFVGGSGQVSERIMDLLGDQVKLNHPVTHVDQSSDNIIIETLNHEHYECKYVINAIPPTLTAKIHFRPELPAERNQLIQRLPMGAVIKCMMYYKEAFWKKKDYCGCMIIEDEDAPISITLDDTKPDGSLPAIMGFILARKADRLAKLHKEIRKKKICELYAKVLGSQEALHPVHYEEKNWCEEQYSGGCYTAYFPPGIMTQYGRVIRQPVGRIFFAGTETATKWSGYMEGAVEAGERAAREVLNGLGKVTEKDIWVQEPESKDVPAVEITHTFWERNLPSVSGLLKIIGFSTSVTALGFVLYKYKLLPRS

[3] = Elimination half life in fasted Sprague-Dawley rat at 1 mg/kg, iv measured for 24 hrs; format: ADME, organism-based; details: in vivo, read-out: beta t1/2 (converted)
[4] = Bioavailability in fasted Sprague-Dawley rat at 5 mg/kg, IG measured for 24 hrs; format: ADME, organism-based; details: in vivo, po
[5] = AUC (0 to t) in fasted Sprague-Dawley rat at 5 mg/kg, IG measured for 24 hrs; format: ADME, organism-based; parameters: dose 5 mg/kg, time 24 hrs, route ig; details: in vivo, po
[6] = Clearance in fasted Sprague-Dawley rat at 1 mg/kg, iv measured for 24 hrs; format: ADME, organism-based; details: in vivo
[7] = Cmax in fasted Sprague-Dawley rat at 1 mg/kg, iv measured for 24 hrs; format: ADME, organism-based; parameters: dose 1 mg/kg, time 24 hrs, route iv; details: Sprague-Dawley, in vivo, read-out: Cmax
[8] = Cmax in fasted Sprague-Dawley rat at 5 mg/kg, IG measured for 24 hrs; format: ADME, organism-based; parameters: dose 5 mg/kg, time 24 hrs, route ig; details: in vivo, po
[9] = Elimination half life in fasted Sprague-Dawley rat at 5 mg/kg, IG measured for 24 hrs; format: ADME, organism-based; details: in vivo, po, read-out: beta t1/2 (converted)
[10] = AUC (0 to t) in fasted Sprague-Dawley rat at 1 mg/kg, iv measured for 24 hrs; format: ADME, organism-based; parameters: dose 1 mg/kg, time 24 hrs, route iv; details: in vivo
[11] = Volume of distribution at steady state in fasted Sprague-Dawley rat at 1 mg/kg, iv measured for 24 hrs; format: ADME, organism-based; details: in vivo, read-out: Vdss
[12] = Drug concentration in Sprague-Dawley rat plasma at 5 mg/kg, ip measured after 15 mins by LC-MS/MS analysis; format: ADME, organism-based
[13] = Metabolic stability in rat liver microsomes assessed as half life at 1 uM incubated for 60 mins in presence of NADPH by LC-MS/MS analysis; format: ADME, Microsome
[14] = Drug concentration in Sprague-Dawley rat brain at 5 mg/kg, ip measured after 15 mins by LC-MS/MS analysis; format: ADME, organism-based; details: read-out: Ct
[15] = Ratio of drug concentration in Sprague-Dawley brain to plasma at 5 mg/kg, ip measured after 120 mins by LC-MS/MS analysis; format: ADME, organism-based; details: rat, read-out: BPR
[16] = Clearance in fasted ICR mouse at 2 mg/kg, iv measured for 24 hrs; format: ADME, organism-based; details: in vivo
[17] = Metabolic stability in dog liver microsomes assessed as intrinsic clearance at 1 uM incubated for 60 mins in presence of NADPH by LC-MS/MS analysis; format: ADME, Canis lupus familiaris, Microsome; details: read-out: CLH
[18] = Elimination half life in fasted ICR mouse at 5 mg/kg, IG measured for 24 hrs; format: ADME, organism-based; details: in vivo, po, read-out: beta t1/2 (converted)
[19] = Metabolic stability in human liver microsomes assessed as intrinsic clearance at 1 uM incubated for 60 mins in presence of NADPH by LC-MS/MS analysis; format: ADME, Microsome; details: read-out: CLH
[20] = Drug concentration in Sprague-Dawley rat plasma at 5 mg/kg, ip measured after 120 mins by LC-MS/MS analysis; format: ADME, organism-based
[21] = Bioavailability in fasted ICR mouse at 5 mg/kg, IG measured for 24 hrs; format: ADME, organism-based; details: in vivo, po
[22] = Drug concentration in Sprague-Dawley rat plasma at 5 mg/kg, ip measured after 60 mins by LC-MS/MS analysis; format: ADME, organism-based
[23] = Elimination half life in fasted ICR mouse at 2 mg/kg, iv measured for 24 hrs; format: ADME, organism-based; details: in vivo, read-out: beta t1/2 (converted)
[24] = Cmax in fasted ICR mouse at 5 mg/kg, IG measured for 24 hrs; format: ADME, organism-based; parameters: dose 5 mg/kg, time 24 hrs, route ig; details: in vivo, po
[25] = Ratio of drug concentration in Sprague-Dawley brain to plasma at 5 mg/kg, ip measured after 15 mins by LC-MS/MS analysis; format: ADME, organism-based; details: rat, read-out: BPR
[26] = Metabolic stability in mouse liver microsomes assessed as intrinsic clearance at 1 uM incubated for 60 mins in presence of NADPH by LC-MS/MS analysis; format: ADME, Microsome; details: read-out: CLH
[27] = Drug concentration in Sprague-Dawley rat brain at 5 mg/kg, ip measured after 120 mins by LC-MS/MS analysis; format: ADME, organism-based; details: read-out: Ct
[28] = Ratio of drug concentration in Sprague-Dawley brain to plasma at 5 mg/kg, ip measured after 60 mins by LC-MS/MS analysis; format: ADME, organism-based; details: rat, read-out: BPR
[29] = AUC (0 to t) in fasted ICR mouse at 5 mg/kg, IG measured for 24 hrs; format: ADME, organism-based; parameters: dose 5 mg/kg, time 24 hrs, route ig; details: in vivo, po
[30] = Metabolic stability in human liver microsomes assessed as half life at 1 uM incubated for 60 mins in presence of NADPH by LC-MS/MS analysis; format: ADME, Microsome
[31] = AUC (0 to t) in fasted ICR mouse at 2 mg/kg, iv measured for 24 hrs; format: ADME, organism-based; parameters: dose 2 mg/kg, time 24 hrs, route iv; details: in vivo
[32] = Metabolic stability in mouse liver microsomes assessed as half life at 1 uM incubated for 60 mins in presence of NADPH by LC-MS/MS analysis; format: ADME, Microsome
[33] = Drug concentration in Sprague-Dawley rat brain at 5 mg/kg, ip measured after 60 mins by LC-MS/MS analysis; format: ADME, organism-based; details: read-out: Ct
[34] = Metabolic stability in rat liver microsomes assessed as intrinsic clearance at 1 uM incubated for 60 mins in presence of NADPH by LC-MS/MS analysis; format: ADME, Microsome; details: read-out: CLH
[35] = Cmax in fasted ICR mouse at 2 mg/kg, iv measured for 24 hrs; format: ADME, organism-based; parameters: time 24 hrs, dose 2 mg/kg, route iv; details: in vivo
[36] = Volume of distribution at steady state in fasted ICR mouse at 2 mg/kg, iv measured for 24 hrs; format: ADME, organism-based; details: in vivo, read-out: Vdss
[37] = Metabolic stability in dog liver microsomes assessed as half life at 1 uM incubated for 60 mins in presence of NADPH by LC-MS/MS analysis; format: ADME, Canis lupus familiaris, Microsome

An IC50 [1] of 1.93 µM and an IC50 [2] greater than 10 µM were found for COc1ccccc1-c1cc2cc(CN3CC[C@H]3C(N)=O)ccc2o1 in this work.
A half-life [3] of 0.783 h, a bioavailability [4] of 56.3% and an IC50 [1] of 0.086 µM were found for NC(=O)[C@@H]1CCN1Cc1ccc2oc(-c3cccc(F)c3)cc2c1 in this work. The AUC(0-t) at 24 h [5] was 527 ng·h/mL, the clearance [6] was 87.9 mL/min/kg and the Cmax [7] was 204 ng/mL. The Cmax [8] was 185 ng/mL, the half-life [9] was 1.06 h and the IC50 [2] was 4.91 µM. For the same compound, the AUC(0-t) at 24 h [10] was 188 ng·h/mL and the Vd [11] was 4.96 L/kg.
An IC50 [1] of 9.49 µM and an IC50 [2] of 6.21 µM were found for COc1ccccc1-c1cc2cc(CN[C@@H](C)C(N)=O)ccc2o1 in this work.
A concentration at 0.25 h [12] of 371 ng/mL, a half-life [3] of 1.18 h and a half-life at 1 µM [13] of 0.331 h were found for C[C@H](NCc1ccc(OCc2cccc(F)c2)cc1)C(N)=O [SAFINAMIDE] in this work. It also gave a concentration at 0.25 h [14] of 3960 ng/g, a bioavailability [4] of 48.5% and a Kp at 2 h [15] of 15.1. The clearance [16] was 34.7 mL/min/kg, the CLint scaled at 1 µM [17] was 43.2 mL/min/kg and the half-life [18] was 2.78 h. For the same compound, the CLint scaled at 1 µM [19] was 2.8 mL/min/kg, the concentration at 2 h [20] was 144 ng/mL and the bioavailability [21] was 129%. The concentration at 1 h [22] was 353 ng/mL, the half-life [23] was 1.59 h and the Cmax [24] was 755 ng/mL. It also gave a Kp at 0.25 h [25] of 10.7, a CLint scaled at 1 µM [26] of 43.2 mL/min/kg and an AUC(0-t) at 24 h [5] of 536 ng·h/mL. It also gave a concentration at 2 h [27] of 2170 ng/g, a Kp at 1 h [28] of 14.4 and a clearance [6] of 70.6 mL/min/kg. For the same compound, the AUC(0-t) at 24 h [29] was 3050 ng·h/mL, the Cmax [7] was 244 ng/mL and the Cmax [8] was 148 ng/mL. The half-life at 1 µM [30] was 8.94 h, the half-life [9] was 2.62 h and the AUC(0-t) at 24 h [31] was 930 ng·h/mL. For the same compound, the half-life at 1 µM [32] was 1.1 h, the concentration at 1 h [33] was 5100 ng/g and the CLint scaled at 1 µM [34] was 38.3 mL/min/kg. It also gave a Cmax [35] of 429 ng/mL, an AUC(0-t) at 24 h [10] of 233 ng·h/mL and a Vd [11] of 5.26 L/kg. It also gave a Vd [36] of 4.53 L/kg and a half-life at 1 µM [37] of 1.1 h.
A half-life [3] of 0.687 h, a bioavailability [4] of 126% and an IC50 [1] of 0.055 µM were found for NC(=O)[C@@H]1C[C@H](F)CN1Cc1ccc2oc(-c3cccc(F)c3)cc2c1 in this work. It also gave an AUC(0-t) at 24 h [5] of 1500 ng·h/mL, a clearance [6] of 66.4 mL/min/kg and a Cmax [7] of 237 ng/mL. For the same compound, the Cmax [8] was 409 ng/mL, the half-life [9] was 2.21 h and the IC50 [2] was 4.89 µM. The AUC(0-t) at 24 h [10] was 250 ng·h/mL and the Vd [11] was 4.12 L/kg.
An IC50 [1] of 5.01 µM and an IC50 [2] of 6.2 µM were found for C[C@H](NCc1ccc2oc(-c3ccccc3F)cc2c1)C(N)=O in this work.
A half-life [3] of 0.482 h, a bioavailability [4] of 80.9% and an IC50 [1] of 0.038 µM were found for NC(=O)[C@@H]1CCN1Cc1ccc2oc(-c3ccc(F)cc3)cc2c1 in this work. It also gave an AUC(0-t) at 24 h [5] of 623 ng·h/mL, a clearance [6] of 102 mL/min/kg and a Cmax [7] of 213 ng/mL. It also gave a Cmax [8] of 161 ng/mL, a half-life [9] of 3.92 h and an IC50 [2] greater than 10 µM. It also gave an AUC(0-t) at 24 h [10] of 161 ng·h/mL and a Vd [11] of 8.53 L/kg.
An IC50 [1] of 4.55 µM and an IC50 [2] of 5.91 µM were found for COc1cccc(-c2cc3cc(CN[C@@H](C)C(N)=O)ccc3o2)c1 in this work.
